# Assays:
# [1] = test system: stratum corneum of porcine skin; assay: Stratum corneum water holding capacity of dry pig skin after oxidation treatment (SKINCON-200); settings: dry pig skin immersed in acrolein 0, 1, 10 and 100 mM for 3 hours; dried at humidity 50%, temperature 250° C., measured 15 minutes later
# Method: (§1) Dry pig skin (Alloask, Taiho Pharmaceutical) was immersed in water for 3 days. The pig skin was removed and subjected to oxidation treatment by immersing in an acrolein solution (Tokyo Chemical Industry) at 0, 1, 10 and 100 mM for 3 hours. Acrolein oxidizes by acting on protein resulting in the formation of an aldehyde-protein adduct. Following oxidation treatment, the pig skin was rinsed with water for 1 hour. After rinsing, the pig skin was initially dried (humidity: 50%, temperature: 250° C.) in a Petri dish with the stratum corneum side facing upward followed 15 minutes later by measuring the moisture content of the stratum corneum with the SKINCON-200 (IBS).
# The results of measuring the moisture content of the stratum corneum are shown in FIG. 1 as skin conductance values.
# [2] = test system: stratum corneum of black pig skin; assay: Stratum corneum water holding capacity of black pig skin after oxidation treatment (SKINCON-200); settings: 1 hour
# Method: Black pig skin was subjected to oxidation treatment for 1 hour with a 10 mM acrolein solution. After rinsing with water for 1 hour, the water was carefully wiped off, and the change in the water content of the stratum corneum over time was measured with the SKINCON-200.
# Black pig skin was treated for 1 hour with 20 mM hypochlorous acid. After rinsing with water for 1 hour, the water was carefully wiped off, and the change in the water content of the stratum corneum over time was measured with the SKINCON-200.
# [3] = test system: stratum corneum of porcine skin; assay: Stratum corneum transparency of dry pig skin after oxidation treatment (observation); settings: dry pig skin immersed in acrolein 0, 1, 10 and 100 mM for 3 hours; dried (humidity 50%, 25° C.), observed over 24 hours
# Method: as §1, with “was” for “was removed and”, “25°” for “250°”, “followed” for “followed 15 minutes later”, “observation” for “measuring the moisture content”, “dried pig skin over” for “stratum corneum with”, “course of 24 hours.” for “SKINCON-200 (IBS).”
# [4] = test system: stratum corneum of human forearm skin; assay: Stratum corneum water holding capacity of human forearm skin after occlusion treatment (SKINCON-200); type: in vivo; settings: occlusion 1 hour, 20 mM hypochlorous acid vs PBS
# Method: Human forearm skin was subjected to occlusion treatment for 1 hour with PBS or 20 mM hypochlorous acid. After rinsing with water for 1 hour, the water was carefully wiped off, and the change in the water content of the stratum corneum over time was measured with the SKINCON-200.
SMILES,moisture content of the stratum corneum (skin conductance) [1],change in the water content of the stratum corneum over time (ability to hold water) ([2]; 10 mM acrolein solution),transparency of the stratum corneum [3],change in the water content of the stratum corneum over time (ability to hold water) ([2]; 20 mM hypochlorous acid),change in the water content of the stratum corneum over time (water holding capacity) [4]
C=CC=O [acrolein],decrease in moisture content was observed that was dependent on the concentration,A decrease was observed in the ability of stratum corneum of the pig skin to hold water,transparency decreased concentration-dependently,–,–
OCl [hypochlorous acid],–,–,–,A decrease was observed in the ability of stratum corneum of the pig skin to hold water,decrease in water holding capacity
